Assay [1] relates to A1555G mutant mitochondrial ribosome (human chimeric). Briefly: in-vitro translation assay, human chimeric ribosomes, A1555G mutant mitochondrial decoding site. The format is biochemical. The conditions noted are these: human mitochondrial decoding site with A1555G point mutation; read-out: IC50 Mitoch. A1555G. An excerpt:
(§1) The antiribosomal activity of these compounds was investigated with cell-free translation assays using both wild type bacterial ribosomes and hybrid ribosomes carrying eukaryotic decoding A sites enabling the prediction of selectivity.

Assay [2] relates to wild type bacterial ribosomes. Briefly: in-vitro translation assay, bacterial ribosomes. The format is biochemical. The conditions noted are these: Mycobacterium smegmatis ribosomes; read-out: IC50 Bacterial.
Excerpt: as §1

The test system of assay [3] is E coli carrying specific resistance determinants. Briefly: MIC by broth microdilution, E coli carrying specific resistance determinants. In kind it is cell-based. The conditions noted are these: for MIC AG036 ANT(4′,4′′): E. coli strain AG036, ANT(4′,4′′); for MIC AG037 APH(3′)-III: E. coli strain AG037, APH(3′)-III; for MIC AG103 armA: E. coli strain AG103, armA; for MIC pH421 APH(3)-I: E. coli strain pH421, APH(3)-I; for MIC pH422 APH(3′)-II: E. coli strain pH422, APH(3′)-II; for MIC pH423 APH(3′)-VI: E. coli strain pH423, APH(3′)-VI; for MIC pH432 ANT(4′): E. coli strain pH432, ANT(4′); for MIC AG003 E. coli AAC(3)-II: clinical isolate AG003, AAC(3)-II.

The subject of the next assay is MRSA. Briefly: MIC by broth microdilution, MRSA isolates. In kind it is cell-based. The conditions noted are these: for MIC AG038 MRSA: clinical isolate AG038; for MIC AG039 MRSA AAC(6′)-I ANT(4′)-I: clinical isolate AG039, AAC(6′)-I ANT(4′)-I; for MIC AG042 MRSA AAC(6′)-I ANT(4′)-I APH(2′): clinical isolate AG042, AAC(6′)-I ANT(4′)-I APH(2′); for MIC AG044 MRSA: clinical isolate AG044.

Assay [4] deals with rabbit reticulocyte ribosomes. Briefly: in-vitro translation assay, rabbit reticulocyte ribosomes. The format is biochemical. Conditions: mammalian cytosolic ribosomes (rabbit).
Assay [5] deals with cytosolic ribosome (human chimeric). In kind it is biochemical. The conditions noted are these: for IC50: ribosomes with a human cytosolic decoding site, read-out: IC50 Cytosolic.
Excerpt: as §1

Assay [6] has as its system mitochondrial ribosome (human chimeric). In kind it is biochemical. The conditions noted are these: for IC50: ribosomes with a human mitochondrial decoding site, read-out: IC50 Mitoch.
Excerpt: as §1

The subject of a further assay is E coli wild type. Briefly: MIC by broth microdilution, wild type E coli. The format is cell-based. The conditions noted are these: for MIC pH430 WT: E. coli strain pH430, WT; for MIC AG001 E. coli WT: clinical isolate AG001, WT; for MIC AG055 E. coli WT: clinical isolate AG055, WT. A general note: Dilution methods test growth across graded concentrations, often in twofold steps.

The next assay concerns P aeruginosa. Briefly: MIC by broth microdilution, P aeruginosa isolates. In kind it is cell-based, Pseudomonas aeruginosa. Conditions: for MIC AG031 P. aer. APH(3′)-II: clinical isolate AG031, APH(3′)-II; for MIC AG032 P. aer. APH(3′)-II: clinical isolate AG032, APH(3′)-II.

The record followed here is patent publication US11466044B2 (WAYNE STATE UNIVERSITY, priority 2017, dated 2022).

Broadly, the IC50 is the concentration that inhibits the measured activity by half.

The structures appear in SMILES notation. ≈ marks a conversion by molar mass, not a printed value.

`CCCC(O)C1OC(OC2C(N)CC(N)C(O)C2OC2OC(CO)C(OC3OC(CN)C(O)C(O)C3N)C2O)C(N)C(O)C1O` (stereo not drawn) [DC142]: in assay [1], the IC50 turned out to be 20 µM. Also, the IC50 in assay [2] is 0.04 µM. In addition, in [3], the “MIC AG036 ANT(4′,4′′)” value is 32 to 64 mg/L, the “MIC AG037 APH(3′)-III” value was above 32 mg/L, the “MIC AG103 armA” value came to 1 mg/L (≈ 1.52 µM) and the “MIC pH421 APH(3)-I” value is on record as above 32 μg/ml. In assay [3], the “MIC pH422 APH(3′)-II” value is recorded as above 32 μg/ml, the “MIC pH423 APH(3′)-VI” value is recorded as above 32 μg/ml, the “MIC pH432 ANT(4′)” value is 1 μg/ml and the “MIC AG003 E. coli AAC(3)-II” value worked out at 8 mg/L (≈ 12.2 µM). Besides, the “MIC pH414 AAC(6′)-I” value in assay [3] (E. coli strain pH414, AAC(6′)-I) came to 1 μg/ml. Further, the “MIC pH415 AAC(6′)-II” value in [3] (E. coli strain pH415, AAC(6′)-II) is given as 1 μg/ml. In addition, in the assay on MRSA, the “MIC AG038 MRSA” value stood at 4 mg/L (≈ 6.08 µM), the “MIC AG039 MRSA AAC(6′)-I ANT(4′)-I” value is above 128 mg/L, the “MIC AG042 MRSA AAC(6′)-I ANT(4′)-I APH(2′)” value is above 128 mg/L and the “MIC AG044 MRSA” value turned out to be 2 mg/L (≈ 3.04 µM). This compound also showed a 50% inhibitory concentration (IC50) in assay [4] of 12 µM. In addition, the IC50 in assay [5] came out at 34 µM. Further, in assay [6], the IC50 worked out at 107 µM. Also, in the assay with E coli wild type, the “MIC pH430 WT” value is reported as 1 μg/ml, the “MIC AG001 E. coli WT” value was 8 mg/L (≈ 12.2 µM) and the “MIC AG055 E. coli WT” value came to 8 mg/L (≈ 12.2 µM). In the assay with P aeruginosa, the “MIC AG031 P. aer. APH(3′)-II” value is above 128 mg/L and the “MIC AG032 P. aer. APH(3′)-II” value was above 128 mg/L.
For the compound `NCC1OC(OC2C(CNC=O)OC(OC3C(O)C(N)CC(N)C3OC3OC(CO)C(O)CC3N)C2O)C(N)C(O)C1O` (stereo not drawn) [DC153], in assay [1], the IC50 came out at 39 µM. The IC50 in assay [2] came out at 0.12 µM. Also, the “MIC AG003 E. coli AAC(3)-II” value in [3] was 4 mg/L (≈ 6.38 µM). Further, in the assay on MRSA, the “MIC AG038 MRSA” value is 4 mg/L (≈ 6.38 µM), the “MIC AG039 MRSA AAC(6′)-I ANT(4′)-I” value is above 128 mg/L, the “MIC AG042 MRSA AAC(6′)-I ANT(4′)-I APH(2′)” value was above 128 mg/L and the “MIC AG044 MRSA” value turned out to be 4 mg/L (≈ 6.38 µM). Also, half-maximal inhibition in assay [4] (IC50) was put at 57 µM. Also, the IC50 in assay [5] was 132 µM. In [6], the IC50 came out at 144 µM. Also, in the assay on E coli wild type, the “MIC AG001 E. coli WT” value came to 4 mg/L (≈ 6.38 µM) and the “MIC AG055 E. coli WT” value is 2 to 4 mg/L. Also, in the assay on P aeruginosa, the “MIC AG031 P. aer. APH(3′)-II” value lay in the range of 32 to 64 mg/L and the “MIC AG032 P. aer. APH(3′)-II” value is 32 mg/L (≈ 51.1 µM).
For the compound `CCCC(O)C1OC(OC2C(N)CC(N)C(O)C2OC2OC(CO)C(OC3OC(CN)C(O)C(O)C3N)C2O)C(N)C(O)C1O` (stereo not drawn) [DC143], the IC50 in assay [1] was 93 µM. In assay [2], the IC50 turned out to be 0.16 µM. In addition, in assay [3], the “MIC AG036 ANT(4′,4′′)” value was 64 mg/L (≈ 97.3 µM), the “MIC AG037 APH(3′)-III” value is above 128 mg/L, the “MIC AG103 armA” value lay in the range of 16 to 32 mg/L and the “MIC pH421 APH(3)-I” value was above 128 μg/ml. For the same compound, in assay [3], the “MIC pH422 APH(3′)-II” value is recorded as above 128 μg/ml, the “MIC pH423 APH(3′)-VI” value is recorded as 32-64 μg/ml, the “MIC pH432 ANT(4′)” value worked out at 4 μg/ml and the “MIC AG003 E. coli AAC(3)-II” value worked out at 32 mg/L (≈ 48.7 µM). Also, in the assay with MRSA, the “MIC AG038 MRSA” value fell in the range of 32 to 64 mg/L, the “MIC AG039 MRSA AAC(6′)-I ANT(4′)-I” value was above 64 mg/L, the “MIC AG042 MRSA AAC(6′)-I ANT(4′)-I APH(2′)” value was above 64 mg/L and the “MIC AG044 MRSA” value worked out at 16 mg/L (≈ 24.3 µM). In [4], this compound registered an IC50 of 66 µM. The IC50 in [5] stood at 259 µM. Moreover, in assay [6], the IC50 was found to be 328 µM. Besides, in the assay with E coli wild type, the “MIC pH430 WT” value was 4 μg/ml, the “MIC AG001 E. coli WT” value is 32 mg/L (≈ 48.7 µM) and the “MIC AG055 E. coli WT” value is 32 mg/L (≈ 48.7 µM). Moreover, in the assay with P aeruginosa, the “MIC AG031 P. aer. APH(3′)-II” value was above 64 mg/L and the “MIC AG032 P. aer. APH(3′)-II” value is above 64 mg/L.
As for `CC(=O)N[C@H]1[C@@H](O[C@H]2[C@H](O[C@@H]3O[C@H](CO)[C@@H](O[C@H]4O[C@@H](CN)[C@@H](O)[C@H](O)[C@H]4N)[C@H]3O)[C@@H](O)[C@H](N)C[C@@H]2N)O[C@H](CN)[C@@H](O)[C@@H]1O` [DC-183], the IC50 was 28 µM in [1]; 5.3 µM in [2]; 103 µM in [4]; 147 µM in [5]; 93 µM in assay [6]. Further, the “MIC AG003 E. coli AAC(3)-II” value in assay [3] is above 32 mg/L. Further, the “MIC AG038 MRSA” value with MRSA was above 32 mg/L. In the assay with MRSA, the “MIC AG039 MRSA AAC(6′)-I ANT(4′)-I” value was above 32 mg/L. The “MIC AG042 MRSA AAC(6′)-I ANT(4′)-I APH(2′)” value against MRSA is above 32 mg/L. For the same compound, the “Target specificity bacterial vs. Cytosolic” value in assay [5] (relative target specificity, bacterial vs. human cytosolic) is reported as “low”. For the same compound, the “Target specificity bacterial vs. Mitochondrial” value in assay [6] (relative target specificity, bacterial vs. human mitochondrial) is recorded as “low”. Moreover, the “MIC AG001 E. coli WT” value against E coli wild type was above 32 mg/L. The “MIC AG055 E. coli WT” value in the assay with E coli wild type is above 32 mg/L. Moreover, the “MIC AG031 P. aer. APH(3′)-II” value in the assay with P aeruginosa is above 32 mg/L. For the same compound, the “MIC AG032 P. aer. APH(3′)-II” value in the assay with P aeruginosa is above 32 mg/L.
